From article PMC3237634 (Bioorganic & medicinal chemistry letters, 2011)
Where two headings read alike, the source gives them in different places.

Legend:
hPEPT1 [1] = biological target: T1, hPEPT1 (Homo sapiens, UniProt P46059); conditions: investigation of 55 tripeptides; cited from earlier work
T1 sequence (P46059 1-708): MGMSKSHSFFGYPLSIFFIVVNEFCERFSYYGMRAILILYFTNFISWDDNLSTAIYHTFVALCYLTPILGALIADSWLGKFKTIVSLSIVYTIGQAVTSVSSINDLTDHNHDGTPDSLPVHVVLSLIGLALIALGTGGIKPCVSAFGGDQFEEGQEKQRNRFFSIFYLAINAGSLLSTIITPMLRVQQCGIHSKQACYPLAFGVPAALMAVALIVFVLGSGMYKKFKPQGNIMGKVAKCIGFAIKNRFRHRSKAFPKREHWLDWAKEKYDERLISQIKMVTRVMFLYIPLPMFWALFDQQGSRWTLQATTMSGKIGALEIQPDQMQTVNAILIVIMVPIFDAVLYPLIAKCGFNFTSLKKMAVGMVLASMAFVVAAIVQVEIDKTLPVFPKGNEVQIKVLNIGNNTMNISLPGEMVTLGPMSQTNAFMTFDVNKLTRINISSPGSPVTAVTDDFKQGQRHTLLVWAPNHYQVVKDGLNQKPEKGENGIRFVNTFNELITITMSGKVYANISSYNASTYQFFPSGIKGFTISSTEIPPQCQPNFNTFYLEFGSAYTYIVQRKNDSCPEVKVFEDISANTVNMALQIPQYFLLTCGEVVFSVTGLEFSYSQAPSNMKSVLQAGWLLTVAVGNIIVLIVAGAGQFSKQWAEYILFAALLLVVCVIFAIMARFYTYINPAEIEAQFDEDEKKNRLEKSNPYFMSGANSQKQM

hPEPT1 [2] = biological target: T1, hPEPT1; format: cell-based; conditions: for affinity for hPEPT1 compared to the lead promoiety H-Phe-Ser-Ala-OH: statistical comparison, N = 3
hPEPT1 [3] = biological target: T1, hPEPT1; conditions: value obtained by refitting data presented in Thorn et al.; cited from earlier work

Asp-Ile-Arg
interaction with hPEPT1 in translocation study (hPEPT1 [1]): not recognized by hPEPT1

C[C@H](NC(=O)[C@H](COC(=O)c1ccccc1)CC(=O)[C@@H](N)Cc1ccccc1)C(=O)O.O=C(O)C(F)(F)F [Compound 14A, H-Phe-ψ[COCH2]Ser(Bz)-Ala-OH]
affinity for hPEPT1 compared to the lead promoiety H-Phe-Ser-Ala-OH (hPEPT1 [2]): did not have significantly different affinities

CCC[C@H](NC(=O)[C@H](COC(=O)c1ccccc1)CC(=O)[C@@H](N)Cc1ccccc1)C(=O)O.O=C(O)C(F)(F)F [Compound 14B, H-Phe-ψ[COCH2]Ser(Bz)-Nva-OH]
affinity for hPEPT1 compared to the lead promoiety H-Phe-Ser-Ala-OH (hPEPT1 [2]): did not have significantly different affinities

N[C@@H](Cc1ccccc1)C(=O)C[C@@H](COC(=O)c1ccccc1)C(=O)N[C@H](C(=O)O)C1CCCCC1.O=C(O)C(F)(F)F [Compound 14C, H-Phe-ψ[COCH2]Ser(Bz)-Chg-OH]
Ki (hPEPT1 [2]): 50 µM | affinity for hPEPT1 compared to the lead promoiety H-Phe-Ser-Ala-OH (hPEPT1 [2]): significantly higher affinity

Met-Pro-Pro
interaction with hPEPT1 in translocation study (hPEPT1 [1]): inhibitor

H-Phe-Ser-Ala-OH
Ki (hPEPT1 [3]): 260 µM
